# Results taken from ChEMBL document CHEMBL4725270, “Chloroquine fumardiamides as novel quorum sensing inhibitors” (2020).
# The source made the active and inactive calls. The rule behind the calls is not given here.
# What was measured:
# [1] = tested on: Chromobacterium violaceum; assay: Inhibition of quorum sensing system in Chromobacterium violaceum ATCC 31532 assessed as reduction in violacein production at 400 uM relative to control
# [2] = tested on: Chromobacterium violaceum; assay: Bactericidal activity against Chromobacterium violaceum ATCC 31532 at 400 uM by resazurin dye based assay relative to control; assay type: functional
# [3] = tested on: Chromobacterium violaceum; assay: Inhibition of quorum sensing in violacein-negative Chromobacterium violaceum CV026 mini-Tn5 mutant assessed as quorum quenching by measuring violacein production at 400 uM in presence of C6-HSL relative to control; parameters: scale not given: the % may be the effect or the level left
# [4] = tested on: Chromobacterium violaceum; assay: Bactericidal activity against violacein-negative Chromobacterium violaceum CV026 mini-Tn5 mutant at 400 uM by resazurin dye based assay relative to control; assay type: functional
# [5] = tested on: Chromobacterium violaceum; assay: Inhibition of quorum sensing in Chromobacterium violaceum ATCC 31532 assessed as reduction in violacein production at 40 uM relative to control
# [6] = tested on: Chromobacterium violaceum; assay: Inhibition of quorum sensing in violacein-negative Chromobacterium violaceum CV026 mini-Tn5 mutant assessed as quorum quenching by measuring violacein production at 40 uM in presence of C6-HSL relative to control; parameters: scale not given: the % may be the effect or the level left
# [7] = tested on: Chromobacterium violaceum; assay: Inhibition of quorum sensing in Chromobacterium violaceum ATCC 31532 assessed as quorum quenching by measuring violacein production at 40 uM in presence of C6-HSL
# [8] = tested on: Chromobacterium violaceum; assay: Inhibition of quorum sensing in Chromobacterium violaceum ATCC 31532 assessed as reduction in violacein production at 400 uM relative to control
# [9] = tested on: Chromobacterium violaceum; assay: Bactericidal activity against Chromobacterium violaceum ATCC 31532 assessed as reduction in cell viability at 400 uM by resazurin dye based assay relative to control
SMILES,inhibition [1],Activity [2],Activity [3],Activity [4],inhibition [5],Activity [6],Activity [7],inhibition [8],Activity [9]
NC1CCN(C(=O)/C=C/C(=O)NCCCCNc2ccnc3cc(Cl)ccc23)CC1,47.2%,16.2%,62.6%,13.4%,7%,39.9%,–,–,–
O=C(/C=C/C(=O)Nc1cccc(C(F)(F)F)c1)NCCCCNc1cc(C(F)(F)F)nc2c(C(F)(F)F)cccc12,22.3%,13.8%,–,–,–,–,–,–,–
COc1cc(NC(C)CCCN)c2ncccc2c1 (stereo unspecified),inactive,inactive,inactive,inactive,–,–,–,–,–
O=C(/C=C/C(=O)Nc1ccc(F)cc1)NCCCCNc1ccnc2cc(Cl)ccc12,87.9%,39.7%,inactive,inactive,–,–,inactive,75%,–
O=C(/C=C/C(=O)Nc1cccc(Cl)c1)NCCCCNc1ccnc2cc(Cl)ccc12,75.3%,45.8%,inactive,inactive,–,–,–,75%,27%
CC(C)(C)OC(=O)N1CCC(NC(=O)/C=C/C(=O)NCCCCNc2ccnc3cc(Cl)ccc23)CC1,inactive,8.3%,–,–,–,–,–,–,–
CCN(CC)CCCC(C)Nc1ccnc2cc(Cl)ccc12 (stereo unspecified) [CHLOROQUINE],13.2%,10.1%,–,–,–,–,–,–,–
COc1cc(NC(C)CCCNC(=O)/C=C/C(=O)Nc2ccc(C(F)(F)F)cc2)c2ncccc2c1 (stereo unspecified),inactive,31.2%,–,–,–,–,–,–,–
CC[C@H]1OC(=O)[C@H](C)[C@@H](O[C@H]2C[C@@](C)(OC)[C@@H](O)[C@H](C)O2)[C@H](C)[C@@H](O[C@@H]2O[C@H](C)C[C@H](N(C)C)[C@H]2O)[C@](C)(O)C[C@@H](C)CN(C)[C@H](C)[C@@H](O)[C@]1(C)O [AZITHROMYCIN],90.6%,85.6%,86.3%,67.2%,–,86.3%,–,90.6%,–
O=C(/C=C/C(=O)Nc1cccc(F)c1)NCCCCNc1cc(C(F)(F)F)nc2c(C(F)(F)F)cccc12,16.9%,inactive,–,–,–,–,–,–,–
COc1cc(NC(C)CCCNC(=O)/C=C/C(=O)Nc2cccc(C(F)(F)F)c2)c2ncccc2c1 (stereo unspecified),inactive,16.4%,–,–,–,–,inactive,–,–
O=C(/C=C/C(=O)NC1CCNCC1)NCCCCNc1ccnc2cc(Cl)ccc12,45.9%,6.5%,61.6%,10.3%,5.4%,42.8%,–,–,–
COc1cc(NC(C)CCCNC(=O)/C=C/C(=O)Nc2cccc(F)c2)c2ncccc2c1 (stereo unspecified),inactive,inactive,–,–,–,–,–,–,–
O=C(/C=C/C(=O)Nc1cccc(C(F)(F)F)c1)NCCCCNc1ccnc2cc(Cl)ccc12,inactive,inactive,–,–,–,–,–,–,–
O=c1c(O)c(-c2ccc(O)c(O)c2)oc2cc(O)cc(O)c12 [QUERCETIN],55.8%,14.7%,66.8%,17.1%,–,–,–,–,–
CC(C)(C)OC(=O)Nc1ccc(NC(=O)/C=C/C(=O)NCCCCNc2ccnc3cc(Cl)ccc23)cc1,inactive,43.7%,–,–,–,–,–,–,–
Nc1ccc(NC(=O)/C=C/C(=O)NCCCCNc2ccnc3cc(Cl)ccc23)cc1,4.7%,17.5%,–,–,–,–,–,–,–
O=C(/C=C/C(=O)Nc1cccc(Cl)c1)NCCCCNc1cc(C(F)(F)F)nc2c(C(F)(F)F)cccc12,22.3%,22.3%,–,–,–,–,–,–,–
O=C(/C=C/C(=O)Nc1ccc(C(F)(F)F)cc1)NCCCCNc1ccnc2cc(Cl)ccc12,85.7%,27.7%,inactive,inactive,–,–,inactive,–,–
O=C(/C=C/C(=O)Nc1cccc(F)c1)NCCCCNc1ccnc2cc(Cl)ccc12,79.4%,27.8%,inactive,inactive,–,–,inactive,75%,27%
O=C(/C=C/C(=O)Nc1ccc(C(F)(F)F)cc1)NCCCCNc1cc(C(F)(F)F)nc2c(C(F)(F)F)cccc12,inactive,inactive,–,–,–,–,–,–,–
O=C(/C=C/C(=O)Nc1ccc(Cl)cc1)NCCCCNc1ccnc2cc(Cl)ccc12,85%,56.9%,inactive,inactive,–,–,inactive,–,27%
CC(C)(C)OC(=O)NC1CCN(C(=O)/C=C/C(=O)NCCCCNc2ccnc3cc(Cl)ccc23)CC1,9.1%,44.6%,–,–,–,–,–,–,–
O=C(/C=C/C(=O)Nc1ccc(Cl)cc1)NCCCCNc1cc(C(F)(F)F)nc2c(C(F)(F)F)cccc12,29.9%,inactive,–,–,–,–,–,–,–
CC(C)(C)OC(=O)NCCNC(=O)/C=C/C(=O)NCCCCNc1ccnc2cc(Cl)ccc12,23%,10.7%,–,–,–,–,–,–,–
NCCNC(=O)/C=C/C(=O)NCCCCNc1ccnc2cc(Cl)ccc12,46.3%,12.1%,53.3%,10.3%,inactive,52.5%,–,–,–
O=C(/C=C/C(=O)Nc1ccc(F)cc1)NCCCCNc1cc(C(F)(F)F)nc2c(C(F)(F)F)cccc12,29.1%,inactive,–,–,–,–,–,–,–
COc1cc(NC(C)CCCNC(=O)/C=C/C(=O)Nc2ccc(F)cc2)c2ncccc2c1 (stereo unspecified),inactive,24.2%,–,–,–,–,–,–,–
COc1cc(NC(C)CCCNC(=O)/C=C/C(=O)Nc2ccc(Cl)cc2)c2ncccc2c1 (stereo unspecified),inactive,inactive,–,–,–,–,–,–,–
COc1cc(NC(C)CCCNC(=O)/C=C/C(=O)Nc2cccc(Cl)c2)c2ncccc2c1 (stereo unspecified),inactive,17.9%,–,–,–,–,–,–,–
